Key:
Assay type in all cases: in vivo, human
[1] = system: patients with PH post-LVAD implantation; assay: Phase 2 study in PH post-LVAD implantation: serum NT-proBNP; details: 10 mg once daily
Experimental: (§1) This is a double-blind, placebo-controlled, multicenter, parallel-group Phase 2 study assessing the efficacy and safety of macitentan in PH post-LVAD implantation. Approximately 57 adult patients with PH post-LVAD implantation were randomized (1:1) to receive either macitentan 10 mg, or matching placebo, once daily orally.
A blood sample is drawn at Randomization (Visit 2) and EOT (Visit 5) for the analysis of serum NT-proBNP. See, Table 12 for serum NT-proBNP at Week 12 compared to baseline for the FAS.
NT-proBNP is summarized by time point and treatment group using descriptive statistics as well as geometric means and CVs. The ratio of Week 12 to Baseline NT-proBNP is summarized similarly. The ratio versus Baseline in NT-proBNP is log-transformed and analyzed using an ANCOVA with covariates for treatment group and Baseline log NT-proBNP.

[2] = system: patients with PH post-LVAD implantation; assay: Phase 2 placebo-controlled study in PH post-LVAD implantation: right heart catheterization hemodynamics (PVR by thermodilution)
Experimental: as §1
After implantation of the LVAD, patients meet baseline hemodynamic criteria of PH via RHC during the last measurement prior to the first dose of drug, defined as mPAP≥25 mmHg at rest and PAWP≤18 mmHg and PVR>3 WU. Patients are randomized within 90 days of surgical implantation of LVAD and within 14 days of Baseline RHC.
• (i) Primary efficacy endpoint: The primary efficacy endpoint is PVR ratio of Week 12 to Baseline. PVR is obtained by the thermodilution method. See, Table 7 for the FAS, Table 8 for the ES, and Table 9 for the PPS.
An RHC conducted prior to signing the Informed Consent may be accepted as the Baseline RHC. Baseline RHC is performed by the thermodilution method, after LVAD implantation and prior to first dose of treatment (which occurs within 90 days post-surgical implantation of LVAD). Randomization (Visit 2) is within 14 days of Baseline RHC. Patients are excluded if they were treated with ERAs, PDE5 inhibitors, i.v., s.c., or oral prostanoids, or guanylate cyclase stimulators within 7 days prior to Baseline RHC or treatment initiation. Patients are excluded if they were treated with inhaled prostanoids (e.g., iloprost, epoprostenol), nitric oxide or i.v. inotropes or vasopressors within 24 h prior to Baseline RHC or treatment initiation. LVAD pump speed/flow rate may be adjusted during the treatment period and during the Baseline RHC.
An RHC is repeated at Week 12, or within 7 days of permanent discontinuation of treatment if prior to Week 12. The Week 12 RHC is performed by the thermodilution method, and not within 24 h of treatment with i.v. inotropes or vasopressors.
The following variables also are measured: pulse rate, PAWP, mRAP, systolic/diastolic/mean PAP, CO, and SVO2 and non-invasive mean, SBP and DBP if available. PVR is calculated. CO measurements, and PVR calculations, during both Baseline and Week 12 RHC is obtained via the thermodilution method. All primary end point calculations is based on thermodilution method-calculated PVR.
The following hemodynamic variables are calculated: PVR, TPR, and CI.
The primary efficacy variable is PVR ratio of Week 12 to Baseline. PVR [WU] is calculated as (mPAP-PAWP)/CO.
The ratio of Week 12 to Baseline PVR is log-transformed (base e) and analyzed using an analysis of covariance (ANCOVA) with a factor for treatment group and a covariate for Baseline log PVR (macitentan vs. placebo). The treatment group difference (on log scale) and its 95% CLs are estimated based on the model. The geometric mean ratio (GMR; macitentan vs. placebo) and its 95% confidence interval are obtained by exponentiation. The null hypothesis is rejected if the entire 95% confidence interval is below one.
The treatment effect is expressed as (GMR-1)×100%, where a negative value indicates a reduction of PVR in the macitentan group as compared to the placebo group.

[3] = system: patients with PH post-LVAD implantation; assay: Phase 2 study in PH post-LVAD implantation: change in WHO functional class
Experimental: as §1
Change from Baseline to Week 12 in WHO FC. See, Table 10.
WHO FC is summarized by time point and treatment group using frequency tables. Changes from Baseline in WHO FC are dichotomized as worsening (i.e., change >0) versus no change or improvement (i.e., change≤0). Worsening is analyzed using a logistic regression model with covariates for treatment group and WHO FC.

[4] = 10 mg once daily, Week 12: Baseline, FAS, n 27
[5] = 10 mg once daily, post-hoc analysis
[6] = PVR calculated by programming, ES sensitivity analysis, 10 mg once daily, Week 12
[7] = PVR calculated by programming, PPS sensitivity analysis, 10 mg once daily, Week 12
[8] = PVR calculated by programming, primary analysis, FAS, 10 mg once daily, Week 12
[9] = PVR reported by INV, sensitivity analysis, FAS, 10 mg once daily, Week 12
[10] = FAS, N = 25, baseline to Week 12

Compound: CCCNS(=O)(=O)Nc1ncnc(OCCOc2ncc(Br)cn2)c1-c1ccc(Br)cc1 [Macitentan, propylsulfamic acid [5-(4-bromo-phenyl)-6-[2-(5-bromo-pyrimidin-2-yloxy)-ethoxy]-pyrimidin-4-yl]-amide]
- NT-proBNP at Week 12/EOT, Mean (std) ([1]; FAS, n 22): 2435.4 (2620.75) ng/L
- NT-proBNP at Week 12/EOT, Median ([1]; FAS, n 22): 1098.0 ng/L
- NT-proBNP (Geometric mean ratio − 1) × 100% ([1]; Week 12, FAS): 10.9%
- NT-proBNP, Comparison to Placebo, Geometric Mean Ratio ([1]; Week 12, FAS): 1.1086
- NT-proBNP Ratio to Baseline, Mean (std) ([1]; Week 12: Baseline, FAS, n 22): 0.8 (0.57)
- NT-proBNP Ratio to Baseline, Median ([1]; Week 12: Baseline, FAS, n 22): 0.6
- DPG, Least squares mean change from baseline ([2]; 10 mg once daily, Day 84 or EOT, FAS, n 23): −6.0383 mmHg
- TPG, Least squares mean change from baseline ([2]; 10 mg once daily, Day 84 or EOT, FAS, n 24): −7.6521 mmHg
- Change in CI, Comparison to Placebo, Difference of least squares mean ([2]; 10 mg once daily, FAS): 0.1209 L/min/m^2
- Change in CO, Comparison to Placebo, Difference of least squares mean ([2]; 10 mg once daily, FAS): 0.2064 L/min
- Change in DPG, Comparison to Placebo, Difference of least squares mean ([2]; 10 mg once daily, FAS): −2.7136 mmHg
- Change in PAWP, Comparison to Placebo, Difference of least squares mean ([2]; 10 mg once daily, FAS): 2.3514 mmHg
- Change in SvO2, Comparison to Placebo, Difference of least squares mean ([2]; 10 mg once daily, FAS): 0.4285%
- Change in TPG, Comparison to Placebo, Difference of least squares mean ([2]; 10 mg once daily, FAS): −2.7022 mmHg
- Change in TPR, Comparison to Placebo, Difference of least squares mean ([2]; 10 mg once daily, FAS): −0.4422 mmHg min/L
- mPAP (end-expiratory mean line), Comparison to Placebo, Difference of least squares mean ([2]; 10 mg once daily, FAS): −0.3052 mmHg
- mRAP, Comparison to Placebo, Difference of least squares mean ([2]; 10 mg once daily, FAS): 2.1396 mmHg
- DPG at Day 84 or EOT, mean (SD) ([2]; 10 mg once daily, FAS, n 23): 3.87 (5.619) mmHg
- Change in CI at Day 84 or EOT compared to Baseline, Least squares mean ([2]; 10 mg once daily, FAS, n 24): 0.1284 L/min/m^2
- Change in CO at Day 84 or EOT compared to Baseline, Least squares mean ([2]; 10 mg once daily, FAS, n 24): 0.3655 L/min
- Change in PAWP at Day 84 or EOT compared to Baseline, Least squares mean ([2]; 10 mg once daily, FAS, n 24): 3.4038 mmHg
- Change in SvO2 at Day 84 or EOT compared to Baseline, Least squares mean ([2]; 10 mg once daily, FAS, n 24): 4.7801%
- Change in TPR at Day 84 or EOT compared to Baseline, Least squares mean ([2]; 10 mg once daily, FAS, n 24): −1.4175 mmHg min/L
- PVR at Week 12/EOT, Mean (std) ([2]; 10 mg once daily, FAS, n 24): 2.555 (1.0607) WU
- PVR at Week 12/EOT, Median ([2]; 10 mg once daily, FAS, n 24): 2.644 WU
- TPG at Day 84 or EOT, mean (SD) ([2]; 10 mg once daily, FAS, n 24): 12.13 (4.902) mmHg
- mPAP (end-expiratory mean line), change from baseline, Least squares mean ([2]; 10 mg once daily, FAS, n 24): −4.2251 mmHg
- mRAP, change from baseline, Least squares mean ([2]; 10 mg once daily, FAS, n 24): 0.6222 mmHg
- Change in mPAP at Day 84 or EOT compared to Baseline, Least squares mean ([2]; 10 mg once daily, FAS, n 24, second mPAP section of Table 11): −4.8854 mmHg
- Change in TPG, Comparison to Placebo, Difference of least squares mean ([2]; 10 mg once daily, FAS, listed as macitentan): −2.7 mmHg
- Change in mPAP, Comparison to Placebo, Difference of least squares mean ([2]; 10 mg once daily, FAS, second mPAP section of Table 11): −1.3035 mmHg
- reduction in PVR for macitentan vs placebo ([2]; 10 mg once daily, Week 12): 26%
- PVR Ratio to Baseline, Mean (std) [2, 4]: 0.585 (0.2280)
- PVR Ratio to Baseline, Median [2, 4]: 0.573
- patients with postbaseline PVR<3 WU, number [2, 5]: 16
- patients with postbaseline PVR<3 WU, percent [2, 5]: 66.7%
- PVR (Geometric mean ratio − 1) × 100% [2, 6]: −26.3%
- PVR Geometric Mean Ratio, comparison to placebo [2, 6]: 0.7371
- PVR (Geometric mean ratio − 1) × 100% [2, 7]: −37.6%
- PVR Geometric Mean Ratio, comparison to placebo [2, 7]: 0.6236
- PVR (Geometric mean ratio − 1) × 100% [2, 8]: −26.1%
- PVR Geometric Mean Ratio, comparison to placebo [2, 8]: 0.7393
- PVR Geometric Mean Ratio, comparison to placebo ([2]; PVR calculated by programming, primary analysis, FAS, 10 mg once daily, Week 12, listed as macitentan): 0.74
- PVR (Geometric mean ratio − 1) × 100% [2, 9]: −26.1%
- PVR Geometric Mean Ratio, comparison to placebo [2, 9]: 0.7386
- effect on PVR in words ([2]; early post-LVAD population): significantly reduced PVR
- LV filling in words ([2]; from PAWP and CO data): improved LV filling
- proportion with postbaseline PVR<3 WU ([2]; patients with baseline PVR<4 WU, n=10): 90.0%
- proportion with postbaseline PVR<3 WU ([2]; patients with baseline PVR>4 WU, n=14): 50.0%
- WHO FC Improvement (change < 0), number of patients [3, 10]: 10
- WHO FC Improvement (change < 0), percent of patients [3, 10]: 40.0%
- WHO FC No change (change = 0), number of patients [3, 10]: 13
- WHO FC No change (change = 0), percent of patients [3, 10]: 52.0%
- WHO FC Worsening (change > 0), number of patients [3, 10]: 2
- WHO FC Worsening (change > 0), percent of patients [3, 10]: 8.0%
- Change in WHO FC, Odds Ratio Macitentan relative to Placebo (95% Confidence Interval) ([3]; ordered logistic regression adjusting for baseline, higher OR = better change): 1.333 (0.417, 4.255)

From patent US20240299384A1, “METHODS FOR TREATING PULMONARY HYPERTENSION IN PATIENTS WITH LEFT VENTRICULAR ASSIST DEVICE IMPLANTATION” (ACTELION PHARMACEUTICALS LTD, priority 2021, published 2024)
